Molecular target: T1, LRRK2 WT (Homo sapiens, UniProt Q5S007)
T1 construct: purchased Life Technologies PR8604B
Experiment: LRRK2 Kinase Activity Assay (LanthaScreen TR-FRET), wild type
Assay type: biochemical
Settings: recombinant wild type LRRK2, 25 μM ATP, 400 nM LRRKtide, 60 min; class symbols
Protocol: LRRK2 kinase activity was measured using a LanthaScreen™ Kinase Activity Assay from ThermoFisher Scientific. Recombinant wild type or G2019S-LRRK2 protein (Life Technologies, PR8604B or PV4881, respectively), was incubated with a fluorescein-labeled peptide substrate called LRRKtide that is based upon ezrin/radixin/moesin (ERM) (Life Technologies, PV4901) in the presence of ATP and serially diluted compound. […] Compound-dependent inhibition of the TR-FRET signal was used to generate a concentration-response curve for IC50 determination.
After 60 min incubation at room temperature, the reaction was stopped by addition of 10 μL of 2×stop solution containing a final concentration of 2 nM anti-pERM antibody and 10 mM EDTA.

T1 sequence (Q5S007 whole entry): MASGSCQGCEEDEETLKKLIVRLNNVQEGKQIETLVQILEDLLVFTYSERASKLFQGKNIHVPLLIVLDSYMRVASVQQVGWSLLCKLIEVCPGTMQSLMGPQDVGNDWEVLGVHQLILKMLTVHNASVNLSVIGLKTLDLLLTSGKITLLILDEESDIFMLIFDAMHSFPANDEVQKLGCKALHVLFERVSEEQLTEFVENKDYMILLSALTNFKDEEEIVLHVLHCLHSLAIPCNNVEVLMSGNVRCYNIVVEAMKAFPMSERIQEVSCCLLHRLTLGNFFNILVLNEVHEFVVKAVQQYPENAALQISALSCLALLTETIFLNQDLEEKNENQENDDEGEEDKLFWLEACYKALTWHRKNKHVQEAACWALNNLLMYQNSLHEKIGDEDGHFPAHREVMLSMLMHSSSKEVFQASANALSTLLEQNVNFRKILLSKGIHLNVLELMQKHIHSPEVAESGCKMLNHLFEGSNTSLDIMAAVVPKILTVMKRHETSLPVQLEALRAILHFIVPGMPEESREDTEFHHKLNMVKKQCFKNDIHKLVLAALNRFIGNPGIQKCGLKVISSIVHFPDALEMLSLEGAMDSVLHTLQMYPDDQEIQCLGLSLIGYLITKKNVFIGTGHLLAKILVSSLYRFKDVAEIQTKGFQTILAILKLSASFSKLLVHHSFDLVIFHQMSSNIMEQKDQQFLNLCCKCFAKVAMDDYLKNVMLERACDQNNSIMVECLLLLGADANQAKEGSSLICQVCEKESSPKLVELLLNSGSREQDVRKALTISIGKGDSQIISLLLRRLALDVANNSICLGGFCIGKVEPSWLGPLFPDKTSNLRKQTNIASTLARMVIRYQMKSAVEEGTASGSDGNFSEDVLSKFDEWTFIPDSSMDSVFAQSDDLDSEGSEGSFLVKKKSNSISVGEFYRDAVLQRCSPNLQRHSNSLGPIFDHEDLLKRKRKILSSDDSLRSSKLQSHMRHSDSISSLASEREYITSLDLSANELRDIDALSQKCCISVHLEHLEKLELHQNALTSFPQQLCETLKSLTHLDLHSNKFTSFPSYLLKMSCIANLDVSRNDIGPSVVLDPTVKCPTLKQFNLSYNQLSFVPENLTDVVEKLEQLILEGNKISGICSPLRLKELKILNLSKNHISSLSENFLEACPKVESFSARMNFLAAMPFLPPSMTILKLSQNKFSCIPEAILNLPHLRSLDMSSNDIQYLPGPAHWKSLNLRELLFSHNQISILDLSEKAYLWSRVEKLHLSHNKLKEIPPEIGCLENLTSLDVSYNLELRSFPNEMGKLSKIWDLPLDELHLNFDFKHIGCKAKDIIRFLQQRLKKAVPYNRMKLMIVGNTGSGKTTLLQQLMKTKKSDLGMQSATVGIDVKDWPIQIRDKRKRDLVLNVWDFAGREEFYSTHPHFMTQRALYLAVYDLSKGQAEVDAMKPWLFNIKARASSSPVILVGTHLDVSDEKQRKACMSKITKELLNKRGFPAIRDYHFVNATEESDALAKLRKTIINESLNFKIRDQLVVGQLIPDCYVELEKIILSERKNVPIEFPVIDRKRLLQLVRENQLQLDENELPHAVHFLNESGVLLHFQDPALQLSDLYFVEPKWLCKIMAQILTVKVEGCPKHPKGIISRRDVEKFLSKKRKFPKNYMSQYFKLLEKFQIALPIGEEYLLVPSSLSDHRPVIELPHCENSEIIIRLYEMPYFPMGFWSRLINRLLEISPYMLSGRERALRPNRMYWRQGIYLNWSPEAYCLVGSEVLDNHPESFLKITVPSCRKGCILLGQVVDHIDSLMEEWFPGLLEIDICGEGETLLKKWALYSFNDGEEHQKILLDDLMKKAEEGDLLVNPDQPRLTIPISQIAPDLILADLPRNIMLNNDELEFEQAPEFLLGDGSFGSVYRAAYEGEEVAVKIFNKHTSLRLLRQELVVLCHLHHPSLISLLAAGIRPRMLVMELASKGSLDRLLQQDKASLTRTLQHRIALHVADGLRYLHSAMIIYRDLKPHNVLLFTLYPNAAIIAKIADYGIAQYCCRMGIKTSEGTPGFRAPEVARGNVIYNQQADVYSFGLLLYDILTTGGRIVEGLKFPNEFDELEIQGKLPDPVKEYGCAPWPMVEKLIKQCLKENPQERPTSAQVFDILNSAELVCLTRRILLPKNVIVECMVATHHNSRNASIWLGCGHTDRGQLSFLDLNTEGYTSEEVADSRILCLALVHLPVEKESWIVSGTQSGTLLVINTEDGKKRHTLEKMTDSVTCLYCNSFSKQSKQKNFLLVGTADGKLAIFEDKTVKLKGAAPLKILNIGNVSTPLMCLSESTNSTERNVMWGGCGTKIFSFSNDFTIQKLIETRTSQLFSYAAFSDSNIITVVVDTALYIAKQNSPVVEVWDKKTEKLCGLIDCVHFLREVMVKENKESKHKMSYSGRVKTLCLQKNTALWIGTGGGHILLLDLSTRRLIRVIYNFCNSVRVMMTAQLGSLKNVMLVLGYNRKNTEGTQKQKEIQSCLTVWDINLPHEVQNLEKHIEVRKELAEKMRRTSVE

IC50 [nM] | SMILES
< 100 | Cc1c(C#N)ccc2c1CC[C@@H]2Nc1ccc2[nH]nc(-c3cnn(C(F)F)c3)c2c1 (single isomer, unassigned) [Example 52, enantiomer 2, 1-((3-(1-(Difluoromethyl)-1H-pyrazol-4-yl)-1H-indazol-5-yl)amino)-4-methyl-2,3-dihydro-1H-indene-5-carbonitrile]
< 100 | COc1c(C#N)ccc2c1CCC[C@@H]2Nc1ccc2[nH]nc(-c3cnco3)c2c1 (single isomer, unassigned) [Example 101, enantiomer 2, 1-Methoxy-5-{[3-(1,3-oxazol-5-yl)-1H-indazol-5-yl]amino}-5,6,7,8-tetrahydronaphthalene-2-carbonitrile]
< 100 | N#Cc1cnc2c(c1)CC[C@@H]2Oc1ccc2[nH]nc(-c3cnco3)c2c1 (single isomer, unassigned) [Example 103, enantiomer 2, 7-((3-(Oxazol-5-yl)-1H-indazol-5-yl)oxy)-6,7-dihydro-5H-cyclopenta[b]pyridine-3-carbonitrile]
< 100 | Cc1nc2c(cc1C#N)CCC[C@@H]2Nc1ccc2[nH]nc(-c3cnco3)c2c1 (single isomer, unassigned) [Example 106, enantiomer 2, 2-Methyl-8-((3-(oxazol-5-yl)-1H-indazol-5-yl)amino)-5,6,7,8-tetrahydroquinoline-3-carbonitrile]
< 100 | Cc1c(C#N)cnc2c1CC[C@@H]2Nc1ccc2[nH]nc(-c3cnco3)c2c1 (single isomer, unassigned) [Example 108, enantiomer 2, 4-Methyl-7-((3-(oxazol-5-yl)-1H-indazol-5-yl)amino)-6,7-dihydro-5H-cyclopenta[b]pyridine-3-carbonitrile]
< 100 | N#Cc1cc2c(nc1Cl)[C@@H](Nc1ccc3[nH]nc(-c4cnco4)c3c1)CCC2 (single isomer, unassigned) [Example 112, enantiomer 2, 2-Chloro-8-((3-(oxazol-5-yl)-1H-indazol-5-yl)amino)-5,6,7,8-tetrahydroquinoline-3-carbonitrile]
< 100 | COc1c(C#N)ccc2c1CC[C@@H]2Nc1ccc2[nH]nc(-c3cnco3)c2c1 (single isomer, unassigned) [Example 113, enantiomer 2, 4-Methoxy-1-((3-(oxazol-5-yl)-1H-indazol-5-yl)amino)-2,3-dihydro-1H-indene-5-carbonitrile]
< 100 | CCc1cc(-c2n[nH]c3ccc(N[C@H]4CCCc5cc(C#N)ccc54)cc23)ccn1 (single isomer, unassigned) [Example 116, enantiomer 2, 5-((3-(2-Ethylpyridin-4-yl)-1H-indazol-5-yl)amino)-5,6,7,8-tetrahydronaphthalene-2-carbonitrile]
< 100 | Cc1c(C#N)ccc2c1CC[C@H]2Nc1ccc2[nH]nc(-c3cnoc3)c2c1 (single isomer, unassigned) [Example 118, enantiomer 2, 1-((3-(Isoxazol-4-yl)-1H-indazol-5-yl)amino)-4-methyl-2,3-dihydro-1H-indene-5-carbonitrile]
< 100 | N#Cc1ccc2c(c1)CCC[C@H]2Nc1ccc2[nH]nc(-c3cnco3)c2c1 (single isomer, unassigned) [Example 119, enantiomer 2, 5-((3-(Oxazol-5-yl)-1H-indazol-5-yl)amino)-5,6,7,8-tetrahydronaphthalene-2-carbonitrile]
< 100 | N#Cc1cnc2c(c1)CCC[C@H]2Nc1ccc2[nH]nc(-c3cnco3)c2c1 (single isomer, unassigned) [Example 120, enantiomer 2, 8-((3-(Oxazol-5-yl)-1H-indazol-5-yl)amino)-5,6,7,8-tetrahydroquinoline-3-carbonitrile]
< 100 | CCc1cc(-c2n[nH]c3ccc(O[C@@H]4CCCc5cc(C#N)cnc54)cc23)ccn1 (single isomer, unassigned) [Example 121, enantiomer 2, 8-((3-(2-Ethylpyridin-4-yl)-1H-indazol-5-yl)oxy)-5,6,7,8-tetrahydroquinoline-3-carbonitrile]
< 100 | N#Cc1cc2c(cn1)[C@H](Oc1ccc3[nH]nc(-c4cnco4)c3c1)CCC2 (single isomer, unassigned) [Example 122, enantiomer 2, 8-((3-(Oxazol-5-yl)-1H-indazol-5-yl)oxy)-5,6,7,8-tetrahydroisoquinoline-3-carbonitrile]
< 100 | COc1cc(-c2n[nH]c3ccc(O[C@H]4CCCc5cc(C#N)cnc54)cc23)ccn1 (single isomer, unassigned) [Example 123, enantiomer 2, 8-((3-(2-Methoxypyridin-4-yl)-1H-indazol-5-yl)oxy)-5,6,7,8-tetrahydroquinoline-3-carbonitrile]
100 to 1000 | Cc1c(C#N)ccc2c1CC[C@@H]2Nc1ccc2[nH]nc(I)c2c1 (single isomer, unassigned) [Example 127, enantiomer 2, 1-((3-Iodo-1H-indazol-5-yl)amino)-4-methyl-2,3-dihydro-1H-indene-5-carbonitrile]
100 to 1000 | Cc1n[nH]c2ccc(N[C@H]3CCc4c(C#N)cccc43)cc12 (single isomer, unassigned) [Example 129, enantiomer 2, 1-((3-Methyl-1H-indazol-5-yl)amino)-2,3-dihydro-1H-indene-4-carbonitrile]
< 100 | Cc1cc(C#N)cc2c1[C@@H](Nc1ccc3[nH]nc(-c4cnco4)c3c1)CC2 (single isomer, unassigned) [Example 131, enantiomer 2, 7-Methyl-1-((3-(oxazol-5-yl)-1H-indazol-5-yl)amino)-2,3-dihydro-1H-indene-5-carbonitrile]
< 100 | N#Cc1cc(F)c2c(c1)CC[C@H]2Nc1ccc2[nH]nc(-c3cnco3)c2c1 (single isomer, unassigned) [Example 132, enantiomer 2, 5-((5-Cyano-7-fluoro-2,3-dihydro-1H-inden-1-yl)amino)-3-(oxazol-5-yl)-1H-indazol-2-ium]
< 100 | N#Cc1cnc2c(c1)CCC[C@@H]2Oc1ccc2[nH]nc(-c3cnn(C(F)F)c3)c2c1 (single isomer, unassigned) [Example 141, enantiomer 2, 8-((3-(1-(Difluoromethyl)-1H-pyrazol-4-yl)-1H-indazol-5-yl)oxy)-5,6,7,8-tetrahydroquinoline-3-carbonitrile]
< 100 | N#Cc1cnc2c(c1)CCC[C@@H]2Nc1ccc2[nH]nc(-c3cncs3)c2c1 (single isomer, unassigned) [Example 142, enantiomer 2, 8-((3-(Thiazol-5-yl)-1H-indazol-5-yl)amino)-5,6,7,8-tetrahydroquinoline-3-carbonitrile]
< 100 | N#Cc1ccc2c(c1Cl)CCC[C@@H]2Nc1ccc2[nH]nc(-c3cnco3)c2c1 (single isomer, unassigned) [Example 143, enantiomer 2, 1-Chloro-5-((3-(oxazol-5-yl)-1H-indazol-5-yl)amino)-5,6,7,8-tetrahydronaphthalene-2-carbonitrile]
< 100 | N#Cc1cnc2c(c1C(F)(F)F)CCC[C@@H]2Nc1ccc2[nH]nc(-c3cnco3)c2c1 (single isomer, unassigned) [Example 145, enantiomer 2, 8-((3-(Oxazol-5-yl)-1H-indazol-5-yl)amino)-4-(trifluoromethyl)-5,6,7,8-tetrahydroquinoline-3-carbonitrile]
< 100 | COc1c(C#N)cnc2c1CCC[C@@H]2Nc1ccc2[nH]nc(-c3cnco3)c2c1 (single isomer, unassigned) [Example 146, enantiomer 2, 4-Methoxy-8-((3-(oxazol-5-yl)-1H-indazol-5-yl)amino)-5,6,7,8-tetrahydroquinoline-3-carbonitrile]
< 100 | N#Cc1ccc2c(c1F)CC(F)(F)[C@@H]2Nc1ccc2[nH]nc(-c3cnco3)c2c1 (single isomer, unassigned) [Example 151, enantiomer 2, 2,2,4-Trifluoro-1-((3-(oxazol-5-yl)-1H-indazol-5-yl)amino)-2,3-dihydro-1H-indene-5-carbonitrile]
100 to 1000 | COc1c(C#N)cnc2c1CC[C@@H]2Nc1ccc2[nH]nc(-c3cnco3)c2c1 (single isomer, unassigned) [Example 154, enantiomer 1, 4-Methoxy-7-((3-(oxazol-5-yl)-1H-indazol-5-yl)amino)-6,7-dihydro-5H-cyclopenta[b]pyridine-3-carbonitrile]
< 100 | Cc1ncc(-c2n[nH]c3ccc(N[C@@H]4c5ccc(C#N)cc5CC4(F)F)cc23)o1 (single isomer, unassigned) [Example 155, enantiomer 2, 2,2-Difluoro-1-((3-(2-methyloxazol-5-yl)-1H-indazol-5-yl)amino)-2,3-dihydro-1H-indene-5-carbonitrile]
< 100 | Cc1ncc(-c2n[nH]c3ccc(O[C@H]4CCc5c4ccc(C#N)c5F)cc23)o1 (single isomer, unassigned) [Example 156, enantiomer 2, 4-Fluoro-1-((3-(2-methyloxazol-5-yl)-1H-indazol-5-yl)oxy)-2,3-dihydro-1H-indene-5-carbonitrile]
< 100 | Cc1cc(-c2n[nH]c3ccc(N[C@H]4CCCc5cc(C#N)cnc54)cc23)sn1 (single isomer, unassigned) [Example 158, enantiomer 2, 8-((3-(3-Methylisothiazol-5-yl)-1H-indazol-5-yl)amino)-5,6,7,8-tetrahydroquinoline-3-carbonitrile]
< 100 | Cc1ncc(-c2n[nH]c3ccc(N[C@H]4CCCc5cc(C#N)c(C)nc54)cc23)o1 (single isomer, unassigned) [Example 159, enantiomer 2, 2-Methyl-8-((3-(2-methyloxazol-5-yl)-1H-indazol-5-yl)amino)-5,6,7,8-tetrahydroquinoline-3-carbonitrile]

From patent US20230148214A1, “INDAZOLES AND AZAINDAZOLES AS LRRK2 INHIBITORS” (ESCAPE Bio, Inc., priority 2020, published 2023)
